Test results: patent US7541353B2, “Compounds for the treatment of hepatitis C” (Bristol-Myers Squibb Company, priority 2007, dated 2009)
Where two headings read alike, the source gives them in different places.

Legend:
HCV replicon cells = assay: HCV replicon FRET assay; assay type: cell-based; details: Hepatitis C virus
Protocol: FRET Assay Preparation. The HCV FRET screening assay was performed in 96-well cell culture plates. The FRET peptide (Anaspec, Inc.) (Taliani et al., Anal. Biochem. 1996, 240, 60-67) contains a fluorescence donor, EDANS, near one end of the peptide and an acceptor, DABCYL, near the other end. The fluorescence of the peptide is quenched by […] resonance energy transfer (RET) between the donor and the acceptor, but as the NS3 protease cleaves the peptide the products are released from RET quenching and the fluorescence of the donor becomes apparent. The assay reagent was made as follows: 5× cell Luciferase cell culture lysis reagent from Promega (#E153A) diluted to 1× with dH2O, NaCl added to 150 mM final, the FRET peptide diluted to 20 μM final from a 2 mM stock.
To prepare plates, HCV replicon cells, with or without a Renilla luciferase reporter gene, were trypsinized and plated in a 96-well plate with titrated test compounds added in columns 3 through 12; columns 1 and 2 contained a control compound (HCV control inhibitor), and the bottom row contained cells with DMSO only. The plates were then placed in a CO2 incubator at 37° C.
Assays. Subsequent to addition of the test compounds described above (FRET Assay Preparation), at various times the plate was removed and Alamar blue solution (Trek Diagnostics, #00-100) was added to measure cellular toxicity. After reading in a Cytoflour 4000 instrument (PE Biosystems), plates were rinsed with PBS and then used for FRET assay by the addition of 30 ul of the FRET peptide assay reagent described above (FRET Assay Preparation) per well. The plate was then placed into the Cytoflour 4000 instrument which had been set to 340 excite/490 emission, automatic mode for up to 20 cycles and the plate read in a kinetic mode. Typically, the signal to noise using an endpoint analysis after the reads was at least three-fold. Alternatively, after Alamar blue reading, plates were rinsed with PBS, then used for luciferase assay using the Promega Dual-Glo Luciferase Assay System or the Promega EnduRen Live Cell Substrate assay.
Compound analysis was performed by quantification of the relative HCV replicon inhibition and the relative cytotoxicity values. To calculate cytoxicity values, the average Alamar Blue fluorescence signals from the control wells were set as 100% non-toxic. The individual signals in each of the compound test wells were then divided by the average control signal and multiplied by 100% to determine […]. To calculate the HCV replicon inhibition values, an average background value was obtained from the two wells containing the highest amount of HCV control inhibitor at the end of the assay period. These numbers were similar to those obtained from naïve Huh-7 cells. The background numbers were then subtracted from the average signal obtained from the control wells and this number was used as 100% activity. The individual signals in each of the compound test wells were then divided by the averaged control values after background subtraction and multiplied by 100% to determine percent activity. EC50 values were calculated as the concentration which caused a 50% reduction in FRET or luciferase activity. The two numbers generated for the compound plate, percent cytoxicity and percent activity, were used to determine compounds of interest for further analysis.

HCV NS5B = biological target: T1, HCV NS5B (Hepatitis C virus genotype 1b, UniProt Q9WMX2); assay: Modified HCV NS5B RdRp enzyme assay (preincubation protocol); assay type: biochemical
T1 construct: The cDNA encoding the NS5B protein of HCV, genotype 1b; made in house; host or cells: E. coli BL21(DE3)
Protocol: HCV NS5B RdRp cloning, expression, and purification. The cDNA encoding the NS5B protein of HCV, genotype 1b, was cloned into the pET21a expression vector. The protein was expressed with an 18 amino acid C-terminal truncation to enhance the solubility. The E. coli competent cell line BL21(DE3) was used for expression of the protein. Cultures were grown at 37° C. for ˜4 hours until the cultures reached an optical density of 2.0 at 600 nm. The cultures were cooled to 20° C. and induced with 1 mM IPTG. Fresh ampicillin was added to a final concentration of 50 μg/ml and the cells were grown overnight at 20° C.
Cell pellets (3L) were lysed for purification to yield 15-24 mgs of purified NS5B. The lysis buffer consisted of 20 mM Tris-HCl, pH 7.4, 500 mM NaCl, 0.5% triton X-100, 1 mM DTT, 1 mM EDTA, 20% glycerol, 0.5 mg/ml lysozyme, 10 mM MgCl2, 15 ug/ml deoxyribonuclease I, and Complete™ protease inhibitor tablets (Roche). After addition of the lysis buffer, frozen cell pellets were resuspended using a tissue homogenizer. To reduce the viscosity of the sample, aliquots of the lysate were sonicated on ice using a microtip attached to a Branson sonicator. The sonicated lysate was centrifuged at 100,000×g for 1 hr at 4° C. and filtered through a 0.2 μm filter unit (Corning).
The protein was purified using two sequential chromatography steps: Heparin sepharose CL-6B and polyU sepharose 4B (Pharmacia). The chromatography buffers were identical to the lysis buffer but contained no lysozyme, deoxyribonuclease I, MgCl2 or protease inhibitor and the NaCl concentration of the buffer was adjusted according to the requirements for charging the protein onto the column. Each column was eluted with a NaCl gradient which varied in length from 5-50 column volumes depending on the column type. After the final chromatography step, the resulting purity of the enzyme is >90% based on SDS-PAGE analysis. The enzyme was aliquoted and stored at −80° C.
Standard HCV NS5B RdRp enzyme assay. HCV RdRp genotype 1b assays were run in a final volume of 60 μl in 96 well plates (Corning 3600). The assay buffer is composed of 20 mM Hepes, pH 7.5, 2.5 mM KCl, 2.5 mM MgCl2, 1 mM DTT, 1.6 U RNAse inhibitor (Promega N2515), 0.01 mg/ml BSA (Sigma B6917), and 2% glycerol. All compounds were serially diluted (3-fold) in DMSO and diluted further in water such that the final concentration of DMSO in the assay was 2%. HCV RdRp genotype 1b enzyme was used at a final concentration of 28 nM. A polyA template was used at 6 nM, and a biotinylated oligo-dT12 primer was used at 180 nM final concentration. Template was obtained commercially (Amersham 27-4110). Biotinylated primer was prepared by Sigma Genosys. 3H-UTP was used at 0.6 μCi (0.29 μM total UTP). Reactions were initiated by the addition of enzyme, incubated at 30° C. for 60 min, and stopped by adding 25 μl of 50 mM EDTA containing SPA beads (4 μg/μl, Amersham RPNQ 0007). Plates were read on a Packard Top Count NXT after >1 hr incubation at room temperature.
Modified HCV NS5B RdRp enzyme assay. A modified enzyme assay was performed essentially as described for the standard enzyme assay except for the following: The biotinylated oligo dT12 primer was precaptured on streptavidin-coated SPA beads by mixing primer and beads in assay buffer and incubating at room temperature for one hour. Unbound primer was removed after centrifugation. The primer-bound beads were resuspended in 20 mM Hepes buffer, pH 7.5 and used in the assay at final concentrations of 20 nM primer and 0.67 μg/μl beads. Order of addition in the assay: enzyme (1.75 nM) was added to diluted compound followed by the addition of a mixture of template (0.36 nM), 3H-UTP (0.6 μCi, 0.29 μM), and primer-bound beads, to initiate the reaction; concentrations given are final. Reactions were allowed to proceed for 4 hours at 30° C.
IC50 values for compounds were determined using seven different [I]. […]

[1] = preincubation protocol, read-out: IC50

T1 sequence (Q9WMX2 2420-2992): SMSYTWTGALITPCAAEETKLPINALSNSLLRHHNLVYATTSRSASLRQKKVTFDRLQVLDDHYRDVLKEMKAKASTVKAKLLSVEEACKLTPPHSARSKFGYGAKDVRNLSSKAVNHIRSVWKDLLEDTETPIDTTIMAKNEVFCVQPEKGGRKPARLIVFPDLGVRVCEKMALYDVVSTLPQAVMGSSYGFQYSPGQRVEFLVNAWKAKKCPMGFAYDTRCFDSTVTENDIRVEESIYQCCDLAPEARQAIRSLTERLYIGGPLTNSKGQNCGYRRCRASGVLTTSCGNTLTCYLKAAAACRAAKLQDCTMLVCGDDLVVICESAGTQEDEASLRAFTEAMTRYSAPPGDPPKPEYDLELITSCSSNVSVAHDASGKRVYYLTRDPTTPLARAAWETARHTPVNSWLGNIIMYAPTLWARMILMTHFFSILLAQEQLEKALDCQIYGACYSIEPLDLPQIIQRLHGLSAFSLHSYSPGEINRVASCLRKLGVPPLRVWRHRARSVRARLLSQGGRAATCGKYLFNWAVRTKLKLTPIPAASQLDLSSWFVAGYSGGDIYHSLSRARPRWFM

| Compound | EC50 (HCV replicon cells; FRET assay, read-out: EC50) | IC50 (HCV NS5B; [1]) | EC50 (HCV replicon cells) | IC50 (HCV NS5B) |
| --- | --- | --- | --- | --- |
| COc1ccc2c(c1)C1CC1(C(=O)C1C3CCC1CC3)Cn1c-2c(C2CCCCC2)c2ccc(C(=O)NS(=O)(=O)N(C)C)cc21 (centres unmarked) | 4.58 to 500 nM | 4.58 to 500 nM |  |  |
| COc1ccc2c(c1)C1CC1(C(=O)N1C3CCC1CC(=O)C3)Cn1c-2c(C2CCCCC2)c2ccc(C(=O)NS(=O)(=O)N(C)C)cc21 (centres unmarked) |  |  | 4.58 to 500 nM | 4.58 to 500 nM |
| COc1ccc2c(c1)C1CC1(C(=O)N1CC3CCC(C1)O3)Cn1c-2c(C2CCCCC2)c2ccc(C(=O)NS(=O)(=O)N(C)C)cc21 (centres unmarked) |  | 4.58 to 500 nM | 4.58 to 500 nM |  |
| COc1ccc2c(c1)C1CC1(C(=O)N1C3CCC1CC(N(CCN(C)C)Cc1ccccc1)C3)Cn1c-2c(C2CCCCC2)c2ccc(C(=O)NS(=O)(=O)C3CC3)cc21 (centres unmarked) |  |  | 4.58 to 500 nM | 4.58 to 500 nM |
| COc1ccc2c(c1)C1CC1(C(=O)N1C3CCC1CC(O)(C1CC1)C3)Cn1c-2c(C2CCCCC2)c2ccc(C(=O)NS(=O)(=O)N(C)C)cc21 (centres unmarked) |  |  | 4.58 to 500 nM | 4.58 to 500 nM |
| COc1ccc2c(c1)C1CC1(C(=O)N1C3CCC1CC(NC(C)C)C3)Cn1c-2c(C2CCCCC2)c2ccc(C(=O)NS(=O)(=O)N(C)C)cc21 (centres unmarked) |  |  | 4.58 to 500 nM | 4.58 to 500 nM |
| COc1ccc2c(c1)C1CC1(C(=O)N1C3CCC1CC(=O)C3)Cn1c-2c(C2CCCCC2)c2ccc(C(=O)NS(C)(=O)=O)cc21 (centres unmarked) |  |  | 4.58 to 500 nM | 4.58 to 500 nM |
| COc1ccc2c(c1)C1CC1(C(=O)N1C3CCC1CC(=O)C3)Cn1c-2c(C2CCCCC2)c2ccc(C(=O)NS(=O)(=O)C(C)C)cc21 (centres unmarked) |  |  | 4.58 to 500 nM | 4.58 to 500 nM |
| CCC(C)S(=O)(=O)NC(=O)c1ccc2c(C3CCCCC3)c3n(c2c1)CC1(C(=O)N2C4CCC2CC(N(C)Cc2ccccc2)C4)CC1c1cc(OC)ccc1-3 (centres unmarked) |  |  | 4.58 to 500 nM | 4.58 to 500 nM |
| COc1ccc2c(c1)C1CC1(C(=O)N1C3CCC1CC(NCc1ccccc1)C3)Cn1c-2c(C2CCCCC2)c2ccc(C(=O)NS(=O)(=O)C(C)C)cc21 (centres unmarked) |  |  | 4.58 to 500 nM | 4.58 to 500 nM |
| CCC(C)S(=O)(=O)NC(=O)c1ccc2c(C3CCCCC3)c3n(c2c1)CC1(C(=O)N2C4CCC2CC(NC)C4)CC1c1cc(OC)ccc1-3 (centres unmarked) |  |  | 4.58 to 500 nM | 4.58 to 500 nM |
| COc1ccc2c(c1)C=C(C(=O)N1C3CCCC1COC3)Cn1c-2c(C2CCCCC2)c2ccc(C(=O)NS(=O)(=O)C3CC3)cc21 |  |  | 4.58 to 500 nM | 4.58 to 500 nM |
| COc1ccc2c(c1)C1CC1(C(=O)N1C3CCC1CC(O)(C(F)(F)F)C3)Cn1c-2c(C2CCCCC2)c2ccc(C(=O)NS(=O)(=O)N(C)C)cc21 (centres unmarked) |  |  | 4.58 to 500 nM | 4.58 to 500 nM |
